Test results: patent publication US12378224B2 (Dong-A Socio Holdings Co., Ltd., priority 2016, dated 2025)

Target: human c-MER catalytic domain (Homo sapiens (Human), UniProt Q12866)
Assay: TR-FRET Kinase Activity Biochemical Assay (LanthaScreen)
Settings: 10 uM ATP, 1 hour, kinase not given
Outline: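 Recombinant human c-MER catalytic domain phosphorylated fluorescein-labeled poly-GT substrate. The reaction was stopped with 10 mM EDTA, then 2 nM Tb-labeled anti-phosphotyrosine antibody was added for 30 min. Kinase activity was taken from the 495/520 nm TR-FRET emission ratio after 340 nm excitation.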

human c-MER catalytic domain, sequence (Q12866 587-858): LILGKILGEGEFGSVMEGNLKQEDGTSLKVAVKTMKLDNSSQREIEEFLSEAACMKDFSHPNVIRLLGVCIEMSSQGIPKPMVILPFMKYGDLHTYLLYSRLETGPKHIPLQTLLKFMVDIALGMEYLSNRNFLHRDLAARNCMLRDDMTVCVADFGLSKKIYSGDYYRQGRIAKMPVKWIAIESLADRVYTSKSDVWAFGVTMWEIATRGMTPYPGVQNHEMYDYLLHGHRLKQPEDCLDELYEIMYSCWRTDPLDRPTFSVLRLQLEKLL

| SMILES | IC50 [µM] |
| --- | --- |
| Cn1cc(-c2cnc(N)c(C(=O)N[C@@H]3CCN(C(=O)Oc4cccc(-c5ccc(CN6CCCC6)cc5)c4)C3)c2)cn1 [Example 333, 4′-(pyrrolidin-1-ylmethyl)-[1,1′-biphenyl]-3-yl (R)-3-(2-amino-5-(1-methyl-1H-pyrazol-4-yl)nicotinamido)pyrrolidine-1-carboxylate] | 0.01 to 0.1 |
| Cn1cc(-c2cnc(N)c(C(=O)N[C@@H]3CCN(C(=O)Oc4cccc(-c5ccc(CN6CCCCC6)cc5)c4)C3)c2)cn1 [Example 334, 4′-(piperidin-1-ylmethyl)-[1,1′-biphenyl]-3-yl (R)-3-(2-amino-5-(1-methyl-1H-pyrazol-4-yl)nicotinamido)pyrrolidine-1-carboxylate] | 0.1 to 1 |
| Cn1cc(-c2cnc(N)c(C(=O)N[C@@H]3CCN(C(=O)Oc4cccc(-c5ccc(CN6CCOCC6)cc5)c4)C3)c2)cn1 [Example 335, 4′-(morpholinomethyl)-[1,1′-biphenyl]-3-yl (R)-3-(2-amino-5-(1-methyl-1H-pyrazol-4-yl)nicotinamido)pyrrolidine-1-carboxylate] | 0.1 to 1 |
| Cn1cc(-c2cnc(N)c(C(=O)N[C@@H]3CCN(C(=O)Oc4cccc(-c5cccc(CN6CC[C@@H](N)C6)c5)c4)C3)c2)cn1 [Example 336, 3′-(((R)-3-aminopyrrolidin-1-yl)methyl)-[1,1′-biphenyl]-3-yl (R)-3-(2-amino-5-(1-methyl-1H-pyrazol-4-yl)nicotinamido)pyrrolidine-1-carboxylate] | 0.1 to 1 |
| Cn1cc(-c2cnc(N)c(C(=O)N[C@@H]3CCN(C(=O)Oc4cccc(-c5cccc(CN6CCC[C@@H](N)C6)c5)c4)C3)c2)cn1 [Example 338, 3′-(((R)-3-aminopiperidin-1-yl)methyl)-[1,1′-biphenyl]-3-yl (R)-3-(2-amino-5-(1-methyl-1H-pyrazol-4-yl)nicotinamido)pyrrolidine-1-carboxylate] | 0.01 to 0.1 |
| Cn1cc(-c2cnc(N)c(C(=O)N[C@@H]3CCN(C(=O)Oc4cccc(-c5cccc(CN6CCC[C@H](N)C6)c5)c4)C3)c2)cn1 [Example 339, 3′-(((S)-3-aminopiperidin-1-yl)methyl)-[1,1′-biphenyl]-3-yl (R)-3-(2-amino-5-(1-methyl-1H-pyrazol-4-yl)nicotinamido)pyrrolidine-1-carboxylate] | 0.1 to 1 |
| Cn1cc(-c2cnc(N)c(C(=O)N[C@@H]3CCN(C(=O)Oc4cccc(-c5cccc(CN6CCC(N)CC6)c5)c4)C3)c2)cn1 [Example 340, 3′-((4-aminopiperidin-1-yl)methyl)-[1,1′-biphenyl]-3-yl (R)-3-(2-amino-5-(1-methyl-1H-pyrazol-4-yl)nicotinamido)pyrrolidine-1-carboxylate] | 0.1 to 1 |
| Cn1cc(-c2cnc(N)c(C(=O)N[C@@H]3CCN(C(=O)Oc4cccc(-c5cccc(CN6CCCNCC6)c5)c4)C3)c2)cn1 [Example 341, 3′-((1,4-diazepan-1-yl)methyl)-[1,1′-biphenyl]-3-yl (R)-3-(2-amino-5-(1-methyl-1H-pyrazol-4-yl)nicotinamido)pyrrolidine-1-carboxylate] | 0.01 to 0.1 |
| Cn1cc(-c2cnc(N)c(C(=O)NC3CN(C(=O)c4ccc(-c5ccccc5)cc4)C3)c2)cn1 [Example 344, N-(1-([1,1′-biphenyl]-4-carbonyl)azetidin-3-yl)-2-amino-5-(1-methyl-1H-pyrazol-4-yl)nicotinamide] | > 1 |
| Cn1cc(-c2cnc(N)c(C(=O)N[C@H]3CCN(C(=O)c4ccc(-c5ccccc5)cc4)C3)c2)cn1 [Example 346, (S)—N-(1-([1,1′-biphenyl]-4-carbonyl)pyrrolidin-3-yl)-2-amino-5-(1-methyl-1H-pyrazol-4-yl)nicotinamide] | > 1 |
| Cn1cc(-c2cnc(N)c(C(=O)N[C@@H]3CCCN(C(=O)c4ccc(-c5ccccc5)cc4)C3)c2)cn1 [Example 347, (R)—N-(1-([1,1′-biphenyl]-4-carbonyl)piperidin-3-yl)-2-amino-5-(1-methyl-1H-pyrazol-4-yl)nicotinamide] | > 1 |
| Cn1cc(-c2cnc(N)c(C(=O)N[C@H]3CCCN(C(=O)c4ccc(-c5ccccc5)cc4)C3)c2)cn1 [Example 348, (S)—N-(1-([1,1′-biphenyl]-4-carbonyl)piperidin-3-yl)-2-amino-5-(1-methyl-1H-pyrazol-4-yl)nicotinamide] | > 1 |
| Cn1cc(-c2cnc(N)c(C(=O)N[C@@H]3CCN(C(=O)c4ccc(-c5ccccc5C=O)cc4)C3)c2)cn1 [Example 355, (R)-2-amino-N-(1-(2′-formyl-[1,1′-biphenyl]-4-carbonyl)pyrrolidin-3-yl)-5-(1-methyl-1H-pyrazol-4-yl)nicotinamide] | 0.01 to 0.1 |
| Cn1cc(-c2cnc(N)c(C(=O)N[C@@H]3CCN(C(=O)c4ccc(-c5cccnc5)cc4)C3)c2)cn1 [Example 356, (R)-2-amino-5-(1-methyl-1H-pyrazol-4-yl)-N-(1-(4-(pyridin-3-yl)benzoyl)pyrrolidin-3-yl)nicotinamide] | 0.1 to 1 |
| Cn1cc(-c2cnc(N)c(C(=O)N[C@@H]3CCN(C(=O)c4ccc(-c5c(F)cccc5F)cc4)C3)c2)cn1 [Example 364, (R)-2-amino-N-(1-(2′,6′-difluoro-[1,1′-biphenyl]-4-carbonyl)pyrrolidin-3-yl)-5-(1-methyl-1H-pyrazol-4-yl)nicotinamide] | 0.01 to 0.1 |
| Cn1cc(-c2cnc(N)c(C(=O)N[C@@H]3CCN(C(=O)c4ccc(-c5ccc(C(F)(F)F)cc5C(F)(F)F)cc4)C3)c2)cn1 [Example 374, (R)-2-amino-N-(1-(2′,4′-bis(trifluoromethyl)-[1,1′-biphenyl]-4-carbonyl)pyrrolidin-3-yl)-5-(1-methyl-1H-pyrazol-4-yl)nicotinamide] | > 1 |
| CN(C)c1ccc(-c2ccc(C(=O)N3CC[C@@H](NC(=O)c4cc(-c5cnn(C)c5)cnc4N)C3)cc2)cc1 [Example 379, (R)-2-amino-N-(1-(4′-(dimethylamino)-[1,1′-biphenyl]-4-carbonyl)pyrrolidin-3-yl)-5-(1-methyl-1H-pyrazol-4-yl)nicotinamide] | 0.01 to 0.1 |
| Cn1cc(-c2cnc(N)c(C(=O)N[C@@H]3CCN(C(=O)c4ccc(-c5cccc(C=O)c5)cc4)C3)c2)cn1 [Example 382, (R)-2-amino-N-(1-(3′-formyl-[1,1′-biphenyl]-4-carbonyl)pyrrolidin-3-yl)-5-(1-methyl-1H-pyrazol-4-yl)nicotinamide] | 0.01 to 0.1 |
| Cn1cc(-c2cnc(N)c(C(=O)N[C@@H]3CCN(C(=O)c4ccc(-c5ccccc5)nc4)C3)c2)cn1 [Example 398, (R)-2-amino-5-(1-methyl-1H-pyrazol-4-yl)-N-(1-(6-phenylnicotinoyl)pyrrolidin-3-yl)nicotinamide] | 0.1 to 1 |
| Cc1csc(C(=O)N2CC[C@@H](NC(=O)c3cc(-c4cnn(C)c4)cnc3N)C2)c1 [Example 409, (R)-2-amino-5-(1-methyl-1H-pyrazol-4-yl)-N-(1-(4-methylthiophene-2-carbonyl)pyrrolidin-3-yl)nicotinamide] | > 1 |
| Cn1cc(-c2cnc(N)c(C(=O)N[C@@H]3CCN(C(=O)c4ccc(OC5C=CCCC5)cc4)C3)c2)cn1 (stereo partly drawn) [Example 411, 2-amino-N-((3R)-1-(4-(cyclohex-2-en-1-yloxy)benzoyl)pyrrolidin-3-yl)-5-(1-methyl-1H-pyrazol-4-yl)nicotinamide] | 0.1 to 1 |
| Cn1cc(-c2cnc(N)c(C(=O)N[C@@H]3CCN(C(=O)c4ccc(CCBr)cc4)C3)c2)cn1 [Example 413, (R)-2-amino-N-(1-(4-(2-bromoethyl)benzoyl)pyrrolidin-3-yl)-5-(1-methyl-1H-pyrazol-4-yl)nicotinamide] | > 1 |
